Experimental data published in ChEMBL document CHEMBL1146669, “The development of potent non-peptidic PTP-1B inhibitors” (Bioorg Med Chem Lett, 2004).
Where “and” joins values, the source holds several entries; their conditions need not be identical. Identical values can stand only once.

Tests used:
[1] = biological target: T1, Tyrosine-protein phosphatase non-receptor type 1 (Homo sapiens, UniProt P18031); experiment: In vitro inhibitory activity against protein tyrosine phosphatase 1B (PTP1B) was determined in fluorescein diphosphate (FDP) assay
T1 sequence (P18031 whole entry): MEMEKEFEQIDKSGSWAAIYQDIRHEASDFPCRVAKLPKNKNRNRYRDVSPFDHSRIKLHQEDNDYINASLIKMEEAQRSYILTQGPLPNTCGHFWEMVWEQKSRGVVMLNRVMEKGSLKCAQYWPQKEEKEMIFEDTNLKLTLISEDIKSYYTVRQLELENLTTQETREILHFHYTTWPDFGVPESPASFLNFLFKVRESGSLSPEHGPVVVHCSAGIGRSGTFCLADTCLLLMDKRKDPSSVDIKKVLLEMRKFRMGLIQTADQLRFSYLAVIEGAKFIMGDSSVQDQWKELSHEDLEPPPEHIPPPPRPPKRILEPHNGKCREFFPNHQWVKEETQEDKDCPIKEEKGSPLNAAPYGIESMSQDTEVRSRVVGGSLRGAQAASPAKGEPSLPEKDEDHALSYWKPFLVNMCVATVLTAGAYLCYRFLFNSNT

[2] = biological target: T2, Receptor-type tyrosine-protein phosphatase C (Homo sapiens, UniProt P08575); experiment: In vitro inhibitory activity against CD45 protein-tyrosine phosphatase
T2 sequence (P08575 whole entry): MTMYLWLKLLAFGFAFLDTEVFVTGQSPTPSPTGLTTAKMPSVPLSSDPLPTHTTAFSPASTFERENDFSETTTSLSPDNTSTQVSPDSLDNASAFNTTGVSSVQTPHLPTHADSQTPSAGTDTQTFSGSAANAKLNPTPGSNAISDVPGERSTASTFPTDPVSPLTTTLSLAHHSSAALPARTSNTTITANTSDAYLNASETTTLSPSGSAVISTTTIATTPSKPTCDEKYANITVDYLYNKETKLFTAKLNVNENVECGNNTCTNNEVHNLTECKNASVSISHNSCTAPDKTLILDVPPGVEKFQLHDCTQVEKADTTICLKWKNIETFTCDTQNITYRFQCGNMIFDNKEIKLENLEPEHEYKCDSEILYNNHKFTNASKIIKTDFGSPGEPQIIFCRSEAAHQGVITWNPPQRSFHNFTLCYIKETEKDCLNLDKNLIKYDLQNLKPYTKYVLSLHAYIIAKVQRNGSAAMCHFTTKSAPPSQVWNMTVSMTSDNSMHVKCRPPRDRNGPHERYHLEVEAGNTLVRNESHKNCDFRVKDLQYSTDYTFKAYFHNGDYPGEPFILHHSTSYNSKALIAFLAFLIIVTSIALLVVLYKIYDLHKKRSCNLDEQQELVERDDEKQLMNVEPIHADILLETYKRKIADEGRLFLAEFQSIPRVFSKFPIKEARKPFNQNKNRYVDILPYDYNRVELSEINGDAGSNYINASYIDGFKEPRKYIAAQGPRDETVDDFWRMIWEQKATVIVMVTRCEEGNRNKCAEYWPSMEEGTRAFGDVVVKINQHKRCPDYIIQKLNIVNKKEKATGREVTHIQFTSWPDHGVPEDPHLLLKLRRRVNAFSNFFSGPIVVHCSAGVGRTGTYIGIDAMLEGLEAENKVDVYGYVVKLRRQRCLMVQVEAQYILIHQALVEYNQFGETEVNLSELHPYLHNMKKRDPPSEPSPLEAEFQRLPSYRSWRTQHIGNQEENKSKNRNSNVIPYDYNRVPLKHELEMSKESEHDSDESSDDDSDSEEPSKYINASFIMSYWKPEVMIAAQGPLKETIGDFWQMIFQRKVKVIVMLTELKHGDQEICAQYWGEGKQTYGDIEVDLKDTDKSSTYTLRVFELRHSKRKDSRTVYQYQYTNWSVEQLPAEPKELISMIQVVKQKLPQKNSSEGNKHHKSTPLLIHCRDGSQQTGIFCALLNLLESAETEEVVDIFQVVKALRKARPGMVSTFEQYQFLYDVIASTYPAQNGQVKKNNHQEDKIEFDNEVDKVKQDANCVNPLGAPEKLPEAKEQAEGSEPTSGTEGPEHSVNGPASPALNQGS

[3] = biological target: T1, Tyrosine-protein phosphatase non-receptor type 1; experiment: In vitro inhibitory activity against Protein tyrosine phosphatase 1B (PTP1B) over-expressed in intact Sf9 cell assay
[4] = In vitro inhibitory activity against Protein tyrosine phosphatase 1B (PTP1B) over-expressed in intact Sf9 cell assay; NA denotes not active
[5] = Half life in ob/ob mice; assay type: ADME, organism-based; conditions: mouse, in vivo
[6] = Oral bioavailability in rat; assay type: ADME, organism-based; conditions: in vivo
[7] = Maximal concentration in rat was determined; assay type: ADME, organism-based; conditions: in vivo

With CC(C)OC(=O)C(Cc1ccc(C(F)(F)P(=O)(O)O)cc1)(Cc1ccc(C(F)(F)P(=O)(O)O)cc1)C(=O)OC(C)C the IC50 [1] was 110 nM, the IC50 [2] was over 50000 nM and the IC50 [3] was 1650 nM.

With O=P(O)(O)C(F)(F)c1ccc(CC(Cc2ccc(C(F)(F)P(=O)(O)O)cc2)(OCc2ccccc2)OCc2ccccc2)cc1 the IC50 [1] was 160 nM, the IC50 [2] was over 50000 nM and the IC50 [3] was 1300 nM.

For O=C(O)c1ccc(CC(Cc2ccc(C(F)(F)P(=O)(O)O)cc2)(C(=O)c2ccccc2)c2ccccc2)cc1 (configuration not stated), the IC50 [1] was 800 nM, the IC50 [2] was over 50000 nM and the IC50 [3] was 6630 nM.

O=C(c1ccccc1)C(Cc1ccc(C(F)(F)P(=O)(O)O)cc1)c1ccccc1 (configuration not stated) gave an IC50 [1] of 2000 nM, an IC50 [2] of over 50000 nM and an IC50 [3] of 16000 nM.

O=C(c1ccccc1)C(C/C=C/c1ccccc1)(Cc1ccc(C(F)(F)P(=O)(O)O)cc1)c1ccccc1 (configuration not stated) showed an IC50 [1] of 190 nM, an IC50 [2] of 5500 nM and an IC50 [3] of 2000 nM.

O=C(OCc1ccccc1)C(Cc1ccc(C(F)(F)C(=O)O)cc1)(Cc1ccc(C(F)(F)P(=O)(O)O)cc1)C(=O)OCc1ccccc1 showed an IC50 [1] of 40 nM, an IC50 [2] of over 50000 nM and an IC50 [3] of 1900 nM.

With O=C(c1ccccc1)C(Cc1ccc(C(F)(F)P(=O)(O)O)c(-c2ccccc2)c1)c1ccccc1 (configuration not stated) the IC50 [4] was “Not Active”, the IC50 [1] was 16000 nM and the IC50 [2] was over 50000 nM.

Work on CC(=O)NS(=O)(=O)c1ccc(CC(Cc2ccc(C(F)(F)P(=O)(O)O)cc2)(C(=O)OCc2ccccc2)C(=O)OCc2ccccc2)cc1 yielded an IC50 [1] of 90 nM, an IC50 [2] of 25000 nM and an IC50 [3] of 1700 nM.

For CS(=O)(=O)c1ccc(CC(Cc2ccc(C(F)(F)P(=O)(O)O)cc2)(C(=O)OCc2ccccc2)C(=O)OCc2ccccc2)cc1, the IC50 [1] was 940 nM, the IC50 [2] was over 50000 nM and the IC50 [3] was 7200 nM.

With O=C(c1ccccc1)C(Cc1ccc(C(F)(F)P(=O)(O)O)cc1)(Cc1ccc(C(F)(F)P(=O)(O)O)cc1)c1ccccc1 the IC50 [1] was 60 nM and 190 nM, the IC50 [2] was over 50000 nM and the IC50 [3] was 580 nM and 1500 nM.

With O=C(c1ccccc1)C(Cc1ccc(C(F)(F)P(=O)(O)O)c(Cl)c1)c1ccccc1 (configuration not stated) the IC50 [1] was 360 nM, the IC50 [2] was over 50000 nM and the IC50 [3] was 2400 nM.

Compound COC(=O)C(Cc1ccc(C(F)(F)P(=O)(O)O)cc1)(Cc1ccc(C(F)(F)P(=O)(O)O)cc1)C(=O)OCc1ccccc1 has an IC50 [1] of 190 nM, a half-life [5] of under 30 min and an IC50 [2] of over 50000 nM. It also gave an IC50 [3] of 1000 nM.

O=C(c1ccccc1)C(Cc1ccc(C(F)(F)P(=O)(O)O)c(Br)c1)c1ccccc1 (configuration not stated) gave a bioavailability [6] of 13%, a Cmax [7] of 35 µM and an IC50 [2] of over 50000 nM. For the same compound, the IC50 [3] was 1220 nM.

With COC(=O)C(Cc1ccc(C(F)(F)P(=O)(O)O)cc1)(Cc1ccc(C(F)(F)P(=O)(O)O)cc1)C(=O)O the IC50 [1] was 390 nM, the IC50 [2] was over 50000 nM and the IC50 [3] was 3800 nM.

For O=C(OCc1ccccc1)C(Cc1ccc(C(F)(F)P(=O)(O)O)cc1)(Cc1ccc(C(F)(F)P(=O)(O)O)cc1)C(=O)OCc1ccccc1, the IC50 [1] was 60 nM, the IC50 [2] was 19000 nM and the IC50 [3] was 540 nM.
